Test systems include A549; DU-145; HCT-116; HL-60; IGROV-1; K562; KM12; M14; MDA-MB-231; NCI-H23; NCI-H460; OVCAR-3; SK-MEL-5; SK-OV-3; SNB-19; SW-620; UO-31; CCRF-CEM; RXF 393.
Experiment in all cases: DTP human tumour cell line panel, 48 h

The source of these data is ChEMBL document CHEMBL1201862, “PubChem BioAssay data set” (2004).

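1) Cells in 96-well plates. 2) Compound, 48 h, 5 concentrations. 3) Linear interpolation between surrounding doses. 4) Unreached endpoint = highest concentration. GI50 = concentration required for 50% inhibition of growth.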 Calls of active or inactive are those of the source. Cut-off read from the data, not from the text of the source: active = GI50 up to about 1.1 µM and inactive = higher. Where only a bound is given, the exact number is not on record here.

As to `CC1(C)C(=O)C(C)(C)C12SSC1(S2)C(C)(C)C(=O)C1(C)C`, the GI50 was 64.9 µM (inactive) in the test with A549; > 100 µM (inactive) in the test on DU-145; > 100 µM (inactive) in the test with HCT-116; 2.41 µM (inactive) with HL-60; > 100 µM (inactive) in the test with IGROV-1; > 100 µM (inactive) in the test with K562. For the same compound, the GI50 with KM12, with M14, in the test with MDA-MB-231, in the test with NCI-H23, with NCI-H460 and in the test on OVCAR-3 was > 100 µM (inactive) each time. The GI50 with SK-MEL-5, in the test on SK-OV-3, in the test on SNB-19, in the test with SW-620 and with UO-31 was > 100 µM (inactive) in each case.
For the compound `COC1(OC)CC(CO)(COc2cc(Cl)nc(N)n2)C1`, the GI50 with A549, in the test on CCRF-CEM, in the test on DU-145, in the test with HCT-116, with IGROV-1 and in the test with K562 was > 100 µM (inactive) in each case. For the same compound, the GI50 in the test with KM12, with MDA-MB-231, with NCI-H23, with NCI-H460, in the test on OVCAR-3 and with RXF 393 was > 100 µM (inactive) throughout. The GI50 in the test on SK-MEL-5, in the test with SK-OV-3, in the test on SNB-19, in the test with SW-620 and with UO-31 was > 100 µM (inactive) in each case.
As for `COc1ccc(P2(=S)OC(C)(C)C(C)(C)O2)cc1`, the GI50 in the test with A549, in the test on CCRF-CEM, with DU-145, in the test on HCT-116, with HL-60 and in the test with IGROV-1 was > 100 µM (inactive) throughout. Further, the GI50 in the test on K562, in the test on KM12, with M14, with MDA-MB-231, in the test on NCI-H23 and in the test on NCI-H460 was > 100 µM (inactive) throughout. Further, the GI50 in the test with OVCAR-3 was > 100 µM (inactive); in the test on SK-MEL-5, > 100 µM (inactive); with SNB-19, > 100 µM (inactive); in the test on SW-620 it was > 100 µM (inactive); with UO-31, 17.5 µM (inactive).
As to `COc1cc([C@@H]2c3cc4c(cc3[C@@H](Nc3ccc(NC(=O)c5cc(NC(=O)c6cc([N+](=O)[O-])cn6C)cn5C)cc3)[C@H]3COC(=O)[C@H]23)OCO4)cc(OC)c1O`, the GI50 was 0.239 µM (active) with A549; 0.154 µM (active) with CCRF-CEM; 0.374 µM (active) in the test on DU-145; 0.149 µM (active) in the test on HCT-116; 0.16 µM (active) in the test with HL-60; 0.216 µM (active) in the test with IGROV-1. For the same compound, the GI50 was 0.0493 µM (active) in the test on K562; 12.5 µM (inactive) in the test with KM12; 1.78 µM (inactive) with M14; > 38.8 µM (inactive) with MDA-MB-231; 0.465 µM (active) with NCI-H23; 0.0303 µM (active) in the test on NCI-H460. The GI50 was > 49.4 µM (inactive) in the test with OVCAR-3; 0.188 µM (active) with SK-MEL-5; 11.6 µM (inactive) in the test on SK-OV-3; 15.8 µM (inactive) in the test on SNB-19; 2.72 µM (inactive) in the test on SW-620; 5.22 µM (inactive) in the test with UO-31.
In the case of `CC(=O)OCCn1cnc2nc(Nc3ccccc3)nc(Cl)c21`, the GI50 in the test with A549 is > 100 µM (inactive); with CCRF-CEM, 69.2 µM (inactive); with DU-145, > 100 µM (inactive); with HCT-116 it was 71.1 µM (inactive); with HL-60, 47.8 µM (inactive); with IGROV-1, > 100 µM (inactive). Besides, the GI50 was 49 µM (inactive) in the test with K562; 29.2 µM (inactive) in the test on KM12; 38.1 µM (inactive) in the test with MDA-MB-231; > 100 µM (inactive) with NCI-H23; 51.9 µM (inactive) in the test on NCI-H460; > 100 µM (inactive) in the test on OVCAR-3. Besides, the GI50 is 60.8 µM (inactive) with SK-MEL-5, > 100 µM (inactive) with SK-OV-3, > 100 µM (inactive) with SNB-19 and > 100 µM (inactive) with SW-620.
Turning to `C/C(=N\NC(=S)Nc1ccccc1)c1nc2cccnc2[nH]1`, the GI50 is 3.31 µM (inactive) in the test with A549; 0.389 µM (active) with CCRF-CEM; 2.84 µM (inactive) in the test on DU-145; 1.63 µM (inactive) with HCT-116; 2.92 µM (inactive) in the test with HL-60; 3.48 µM (inactive) in the test on IGROV-1. Further, the GI50 was 3.35 µM (inactive) with K562; 7.08 µM (inactive) with KM12; 3.58 µM (inactive) with M14; 1.06 µM (active) in the test with MDA-MB-231; 9.53 µM (inactive) with NCI-H23; 1.54 µM (inactive) in the test on NCI-H460. The concentration for 50% growth inhibition (GI50) in the test on OVCAR-3 is 0.456 µM (active); in the test with SK-MEL-5, 2.69 µM (inactive); with SK-OV-3, 5.36 µM (inactive); with SNB-19 it was 5.96 µM (inactive); in the test on SW-620, 4.97 µM (inactive); with UO-31 it was 1.38 µM (inactive).
Take `O=c1c2c(oc3ccccc13)-c1ccccc1OC2`: the GI50 was 96.6 µM (inactive) in the test on A549; > 100 µM (inactive) in the test on CCRF-CEM; 53.3 µM (inactive) in the test with DU-145; 29.9 µM (inactive) with HCT-116; 36.7 µM (inactive) in the test with IGROV-1; > 100 µM (inactive) in the test on K562. Besides, the GI50 in the test on KM12 was > 100 µM (inactive); with M14 it was > 100 µM (inactive); in the test with MDA-MB-231, 21.1 µM (inactive); with NCI-H23, 59.7 µM (inactive); with OVCAR-3, > 100 µM (inactive); with SK-MEL-5 it was 44.8 µM (inactive). The GI50 is 20.2 µM (inactive) in the test on SK-OV-3, 67.8 µM (inactive) with SW-620 and 28.6 µM (inactive) in the test on UO-31.
`O=C1Nc2c(Cl)cc(Cl)cc2/C1=N/NC(=O)c1ccccc1O`: the GI50 in the test on A549 is 13.2 µM (inactive); in the test on CCRF-CEM it was 11.2 µM (inactive); in the test with HCT-116 it was 13.6 µM (inactive); in the test with HL-60 it was 15.1 µM (inactive); in the test with IGROV-1, 12.3 µM (inactive); with KM12 it was 15.5 µM (inactive). Also, the GI50 in the test with M14 is 16.1 µM (inactive); in the test on MDA-MB-231 it was 15.6 µM (inactive); in the test with NCI-H23, 18.2 µM (inactive); in the test with NCI-H460, 13.5 µM (inactive); in the test on OVCAR-3, 11.2 µM (inactive); in the test on RXF 393 it was 12.2 µM (inactive). The GI50 with SK-MEL-5 was 14.8 µM (inactive); in the test on SK-OV-3, 16.8 µM (inactive); in the test on SNB-19, 14.4 µM (inactive); in the test with SW-620, 16.9 µM (inactive); with UO-31 it was 11.9 µM (inactive).
As for `CCOC(=O)c1ccc(Nc2nc3ccccc3nc2C(=O)OCC)cc1`, the GI50 in the test on A549, with CCRF-CEM, with DU-145, in the test on HCT-116, in the test with HL-60 and in the test with IGROV-1 was > 100 µM (inactive) throughout. Further, the GI50 was > 100 µM (inactive) in the test with K562; 75.5 µM (inactive) with KM12; > 100 µM (inactive) in the test on M14; > 100 µM (inactive) in the test on MDA-MB-231; > 100 µM (inactive) in the test on NCI-H23; > 100 µM (inactive) in the test with NCI-H460. In addition, the GI50 with OVCAR-3, with SK-MEL-5, with SK-OV-3, in the test with SNB-19 and with UO-31 was > 100 µM (inactive) each time.
For the compound `CN(C(=O)Cc1ccccc1)n1cn[n+](CC(=O)OC(C)(C)C)c1`, the GI50 with A549, in the test with CCRF-CEM, in the test with DU-145, with HCT-116, in the test on IGROV-1 and in the test with K562 was > 10 µM (inactive) throughout. For the same compound, the GI50 with KM12, in the test on M14, with MDA-MB-231, in the test with NCI-H23, with NCI-H460 and in the test on OVCAR-3 was > 10 µM (inactive) throughout. For the same compound, the GI50 in the test with SK-MEL-5, in the test on SK-OV-3, in the test on SNB-19, in the test on SW-620 and in the test with UO-31 was > 10 µM (inactive) throughout.
`N#Cc1c(N2CCN(c3ccc([N+](=O)[O-])cc3)CC2)[n+]([O-])c2ccc(-c3ccc([N+](=O)[O-])cc3)cc2[n+]1[O-]`: the GI50 was 2.49 µM (inactive) with A549; 1.28 µM (inactive) in the test on CCRF-CEM; 21.2 µM (inactive) in the test with DU-145; 4.56 µM (inactive) in the test on HCT-116; 1.69 µM (inactive) with IGROV-1; 5.26 µM (inactive) in the test with K562. Moreover, the GI50 in the test with KM12 was > 83.6 µM (inactive); in the test with M14, 19.2 µM (inactive); with MDA-MB-231, 22.5 µM (inactive); in the test on NCI-H23, > 31 µM (inactive); with NCI-H460, 2.5 µM (inactive); in the test with OVCAR-3, > 19.8 µM (inactive). For the same compound, the GI50 in the test on SK-MEL-5 was 4.18 µM (inactive); with SK-OV-3, > 100 µM (inactive); with SNB-19 it was 9.18 µM (inactive); in the test with SW-620 it was 35.2 µM (inactive); in the test with UO-31, 8.59 µM (inactive).
In the case of `N#C/C(N)=C(C#N)/N=C/Nc1ccc(N)cc1`, the GI50 in the test on A549 is > 100 µM (inactive); in the test on CCRF-CEM, 44.3 µM (inactive); in the test on DU-145, > 100 µM (inactive); in the test with HCT-116, > 100 µM (inactive); in the test with HL-60 it was 30.3 µM (inactive); with IGROV-1 it was > 100 µM (inactive). Also, the GI50 in the test with K562, in the test on KM12, with M14, with MDA-MB-231, with NCI-H23 and in the test with NCI-H460 was > 100 µM (inactive) in each case. Moreover, the GI50 was > 100 µM (inactive) with OVCAR-3; 29.2 µM (inactive) in the test with SK-MEL-5; > 100 µM (inactive) in the test with SK-OV-3; > 100 µM (inactive) in the test with SNB-19; > 100 µM (inactive) in the test on SW-620; > 100 µM (inactive) in the test on UO-31.
